Values joined by “and” are separate entries in the source; they are usually repeats but may differ in a detail not shown here. Equal entries are not always repeated.
Tests used:
C2C12 cells = test: Differentiation and muscle protein expression of C2C12 myoblasts exposed to deacetylase inhibitors (MHC immunofluorescence, Western blot, RT-PCR, FACS); type: cell-based, mouse
Experimental: Mouse muscle myoblast C2C12 cells (obtained from the American Type Culture Collection, ATCC CRL-1772) and CC42 cells (from Dr. Kenneth Walsh, Tufts University School of Medicine) were cultured in DMEM supplemented with 20% fetal bovine serum, 2 mM glutamine and 1× kanamycin (growth medium, GM). Cellular differentiation was induced with DMEM supplemented with 2% horse serum and 1× insulin, transferring, selenium (Life Technologies). Human skeletal myocytes (CC-2561) were purchased from Clonetics. Stable C2C12 cell lines with integrated reporters are described in Wu, Z., et al., Mol Cell Biol 20:3951-64 (2000). The MCK-luc, 4RE-luc, MEF2 reporter constructs have been described in Puri, P. L., et al., EMBO Journal 16:369-83 (1997a) and Sartorelli, V., et al., Molecular & Cellular Biology 17:1010-26 (1997). The E2F-luc plasmid is described in Helin, K., et al., Genes Dev 7:1850-61 (1993). The MLC-lacZ-nls plasmid is described in Wu, et al. (2000). Dr. Stuart Schreiber (Harvard University) provided the vector expressing Flag-HDAC1, which is described in Taunton, J., et al., Science 272: 408-11 (1996). Transient transfections were performed using FuGENE 6 transfection reagent (Roche Molecular Biochemicals). Following transfections, luciferase activity was determined using the Dual-Luciferase reporter assay system (Promega) on a microtiter luminescence detection system (MLX, Dynex).
For immunoblotting, cell extracts were obtained after incubating the cells in standard lysis buffer. Western blots were probed with the following antibodies: anti-MHC (MF-20), anti-myogenin (FD5), and anti-tubulin (E7), obtained from the Developmental Studies Hybridoma Bank, University of Iowa. Primary antibodies were visualized with the ECL cheminoluminescent kit (Amersham). Cells were fixed and stained with anti-MHC MF-20 antibodies. Nuclei were visualized by 4′,6′-[…]-2-phenylindole (DAPI). FITC-conjugated or Texas red-conjugated secondary antibodies were employed to reveal the primary antibodies.
C2C12 and CC42 cells were exposed to sodium butyrate 5 mM (Sigma), trichostatin A 50 nM (Upstate Biotechnologies), or valproic acid 10 mM (Sigma) for 24 hours in GM (GM regimen). TSA was removed and the cells cultured in DM for 48 hrs before being analyzed. When indicated (DM regimen), the cells were exposed to deacetylase inhibitors when switched from GM to DM and cultured in their presence for 48 hrs.
Another striking effect induced by DI is their ability to increase the number of nuclei present in MHC positive cells. While approximately 15% of the total nuclei are present in elongated, MHC-positive myotubes not exposed to DI, approximately 75-80% of the total nuclei are detected in hypernucleated MHC-positive myotubes when these have been previously exposed to DI (see FIG. 1D and Table 1). In Table 1, C2C12 cells were either exposed to sodium butyrate, TSA, VPA or left untreated for 24 hours in GM. The medium was replaced with DM without DI, and MHC expression was detected by immunofluorescent staining. Nuclei were visualized with DAPI. The values in parenthesis indicate the percentage of nuclei detected in MHC-positive cells. The values are derived from two independent trials.

MLC3F-lacZ-nls construct = test: β-Galactosidase assay of cells transfected with MLC3F-lacZ-nls; type: cell-based, mouse; details: transfected cells exposed in GM, then DM 48 hours; vs non-treated cells
Experimental: FIGS. 4A-C illustrate that embryos exposed to DI display enhanced somitogenesis and increased muscle gene expression. […] Cells were then exposed to TSA (50 nM) in GM and subsequently switched to DM for 48 hours. Cells were stained to detect β-galactosidase activity. FIG. 4B is a picture of E 10.5 embryos derived from MLC1/3F-nLacZ transgenic mice exposed to either TSA or VPA treatment (see Example 1) and stained for 1 hour at 30° C. to detect β-galactosidase activity. […] FIG. 4C is a Western blot of extracts derived from total embryos exposed to either TSA or VPA; MHC is detected.
Cells transfected with MLC-lacZ-nls were washed twice in PBS, fixed in 4% paraformaldeheyde-PBS for 5 min, washed twice in PBS, and stained for 2-5 hrs with 5 mM potassium ferrycyanide, 5 mM potassium ferrocyanide, 2 mM MgCl2, 1 mg/ml X-gal (5-bromo-4-chloro-3-indolyl-β-D-galactoside).

mouse embryos = test: Embryos of pregnant MLC1/3F-nLacZ mice exposed in utero (somitogenesis, muscle gene expression); type: in vivo
Experimental: MLC1/3F-nLacZ pregnant mice (E 8.5) received intra peritoneal injection of 15 μg of TSA (WAKO chemicals, Neuss Germany) or VPA (Sigma) at E 8.5 and E 9.5 as described in Faiella, A., et al., Hum Mol Genet 9:227-36 (2000), and Nervi, C., et al., Cancer Res 61:1247-9 (2001). VPA was dissolved in distilled water and administered at doses of 6 mg/mice (about 150 μg/ml) every 12 h at E 8.5, E 9, E 9.5, E 10 as described in Faiella et al. (2000). […] Mice were sacrificed at E 10.5, and the embryos were observed under a dissecting stereo-microscope to evaluate their viability, presence of external malformations, and number of somites. Embryos were fixed in 4% paraformaldehyde for histology and X-Gal staining or immunocytochemistry using antibodies against MyoD and myosin heavy chains as described in Tajbakhsh, S., et al., Neuron 13:813-21 (1994).
DI was administered intraperitoneally to pregnant mice (at a concentration of 0.5 to 1 mg/Kg for TSA and 200 mg/Kg for VPA) at post-implantation stages of E 8.5, and the pregnant mice were sacrificed at 10.5, when MyoD expression is clearly detectable in the myotomes. […] In Table 2, Somites of MLC1/3F-nLacZ mice (injected at day 8.5 and sacrificed at day 10.5) were scored after staining the embryos to detect β-galactosidase activity.

[1] = test system: histones of the MCK enhancer; test: Chromatin immunoprecipitation with anti-acetyl-histone H4; type: cell-based, mouse; details: myoblasts exposed to TSA in GM 16 hours, then DM 24 hours
Experimental: In FIG. 3A, MyoD acetylation in undifferentiated C2C12 myoblasts (GM) untreated (−) or treated with either sodium butyrate (Butyr.) or TSA and in differentiated myotubes (abbrev. DM in FIG. 3A, but not to be confused with the abbreviation for “differentiation medium” as used elsewhere herein) was measured by ^3H incorporation of exogenously transfected Flag-tagged MyoD following metabolic labeling with ^3H sodium acetate as described in Sartorelli, V., et al., Molecular Cell 4:725-34 (1999). […] Chromatin was immunoprecipitated with antibodies against acetyl-histone 4 (AcH4) or IgG (as a control). Purified DNA from anti-AcH4 immunoprecipitated chromatin was analyzed by PCR using primers recognizing GAPDH promoter and MCK enhancer as described in Example 1. Unbound DNA (lanes 2 and 3, top panel) is an aliquot of chromatin not immunoprecipitated by anti-AcH4 antibody and amplified with GAPDH primers. Input (lanes 2 and 3, bottom panel) is an aliquot (1%) of the chromatin analyzed before the immunoprecipitation to quantify the amount of DNA present in different samples. […] Myoblasts were then formaldehyde cross-linked and processed. […]
The MCK primers amplify nucleotides −1229 to −1007 of the MCK enhancer, while the GAPDH primers amplify nucleotides −1030 to −721. The PCR products were analyzed on 6% non-denaturing polyacrylamide gels. […]

[2] = C2C12, DI 24 hours in GM, then DM without DI, Tr. 1 and Tr. 2
[3] = i.p. to pregnant mice at E 8.5, sacrificed at 10.5, 0.5 to 1 mg/Kg TSA, 200 mg/Kg VPA
[4] = treated at E 8.5, sacrificed at E 9.5

## CC(/C=C/C(=O)NO)=C\[C@@H](C)C(=O)c1ccc(N(C)C)cc1 [TSA, trichostatin A]
C2C12 cells; [2]
  Nuclei/MHC-Positive Cells (number of nuclei): 200 and 210
  percentage of nuclei detected in MHC-positive cells: 75% and 65%
C2C12 cells; undifferentiated myoblasts exposed in GM
  endogenous MCK transcripts (RT-PCR): induction of endogenous MCK transcripts
C2C12 cells; undifferentiated myoblasts exposed in GM, differentiated in the absence of DI, vs untreated cells
  MHC expression and frequency of MHC-positive multinucleated cells: effects undistinguishable from those exerted by sodium butyrate
MLC3F-lacZ-nls construct
  β-galactosidase-positive nuclei: increased β-galactosidase-positive nuclei
Mouse embryos; E 10.5 embryos, vs control embryos
  level of MLC-lacZ transgene expression: higher level of MLC-lacZ transgene expression
Mouse embryos; MLC1/3F-nLacZ mice injected at day 8.5, sacrificed at day 10.5, TSA [1 mg/ml] (20 ul + 380 ul PBS), VPA 155 mM, one value per embryo, PBS controls 25-32
  # somites (β-galactosidase staining): 32 and 37 and 34 and 36 and 33
Mouse embryos; animals exposed to a DI
  Notch transcripts: increased
Mouse embryos; extracts of total embryos
  levels of MHC in exposed embryos (Western blot): augmented the levels of MHC
Mouse embryos; [3]
  number of MLC expressing somites: consistently increased
  number of MyoD expressing myotomes: consistently increased
Mouse embryos; [4]
  acetylation of histone H4 in embryos: increased acetylation of histone H4
  embryo size vs control embryos: modestly and consistently larger than control embryos
  increase in number of somites vs control embryos: +2 to +6
  number of somites expressing Myf-5: increased
[1]
  histone H4 acetylation of the MCK enhancer (ChIP): histone hyperacetylation of the MCK enhancer

From US7795208B2, “Methods of using deacetylase inhibitors to promote cell differentiation and regeneration” (The Salk Institute for Biological Study, priority 2001, dated 2010)
